In US10597388B2, “Pyridazinone herbicides” (FMC CORPORATION, priority 2014, dated 2020):

Legend:
Assay in all cases: Test D controlled growth environment herbicide test, pre- and postemergence
Format in all cases: in vivo
[1] = tested on: mustard, wild (wild mustard, Sinapis arvensis)
Text: (§1) Seeds of plant species selected from bluegrass (annual bluegrass, Poa annua), blackgrass (Alopecurus myosuroides), Canada thistle (Cirsium arvense), canarygrass (Phalaris minor), chickweed (common chickweed, Stellaria media), geranium, cutleaf (cutleaf geranium, Geranium dissectum), galium (catchweed bedstraw, Galium aparine), bromegrass, downy (downy bromegrass, Bromus tectorum), field poppy (Papaver rhoeas), field violet (Viola arvensis), foxtail, green (green foxtail, Setaria viridis), deadnettle (henbit deadnettle, Lamium amplexicaule), ryegrass, Italian (Italian ryegrass, Lolium multiflorum), kochia (Kochia scoparia), lambsquarters (Chenopodium album), oilseed rape (Brassica napus), pigweed (Amaranthus retroflexus), chamomile (scentless chamomile, Matricaria inodora), Russian thistle (Salsola kali), speedwell (bird's-eye speedwell, Veronica persica), barley, spring (spring barley, Hordeum vulgare), wheat, spring (spring wheat, Triticum aestivum), buckwheat, wild (wild buckwheat, Polygonum convolvulus), mustard, wild (wild mustard, Sinapis arvensis), oat, wild (wild oat, Avena fatua), radish, wild (wild radish, Raphanus raphanistrum), windgrass (Apera spica-venti), barley, winter (winter barley, Hordeum vulgare), and wheat, winter (winter wheat, Triticum aestivum) were planted into a silt loam soil and treated preemergence with test chemicals formulated in a non-phytotoxic solvent mixture which included a surfactant.
(§2) At the same time, these species were planted in pots containing Redi-Earth® planting medium (Scotts Company, 14111 Scottslawn Road, Marysville, Ohio 43041) comprising spaghnum peat moss, vermiculite, wetting agent and starter nutrients and treated with postemergence applications of the test chemicals formulated in the same manner. Plants ranged in height from 2 to 18 cm (1- to 4-leaf stage). Treated plants and controls were maintained in a controlled growth environment for 14 to 21 d after which time all species were compared to controls and visually evaluated. Plant response ratings, summarized in Table D, are based on a scale of 0 to 100 where 0 is no effect and 100 is complete control. A dash (-) response means no test result.

[2] = tested on: barley, winter (winter barley, Hordeum vulgare)
Text: as §1, §2

[3] = tested on: chamomile (scentless chamomile, Matricaria inodora); settings: for Chamomile plant response rating: 31 g ai/ha
Text: as §1, §2

[4] = tested on: blackgrass (Alopecurus myosuroides)
Text: as §1, §2

[5] = tested on: windgrass (Apera spica-venti)
Text: as §1, §2

[6] = tested on: radish, wild (wild radish, Raphanus raphanistrum)
Text: as §1, §2

[7] = tested on: lambsquarters (Chenopodium album)
Text: as §1, §2

[8] = tested on: deadnettle (henbit deadnettle, Lamium amplexicaule)
Text: as §1, §2

[9] = tested on: field poppy (Papaver rhoeas)
Text: as §1, §2

[10] = tested on: foxtail, green (green foxtail, Setaria viridis)
Text: as §1, §2

[11] = Postemergence, 31 g ai/ha, scale 0 to 100 (0 no effect, 100 complete control)
[12] = Postemergence, 125 g ai/ha, visual rating on scale 0 (no effect) to 100 (complete control), 14 to 21 d
[13] = Postemergence, 250 g ai/ha, scale 0 to 100 (0 no effect, 100 complete control)
[14] = Preemergence, 125 g ai/ha, scale 0 to 100 (0 no effect, 100 complete control)
[15] = Preemergence, 250 g ai/ha, scale 0 to 100, 0 no effect, 100 complete control
[16] = postemergence, 62 g ai/ha, scale 0 to 100, 0 no effect, 100 complete control
[17] = Preemergence, 62 g ai/ha, scale 0 to 100 (0 no effect, 100 complete control)
[18] = Postemergence, scale 0 to 100 (0 no effect, 100 complete control)

## CC(=O)Oc1c(C)nn(C)c(=O)c1-c1c(C)sc2ccc(Cl)cc12 [Compound 108]
[1]; [11]
  Mustard, Wild plant response rating: 70
[1]; [12]
  Plant response rating, Mustard, Wild: 95
[1]; [13]
  Plant response rating, Mustard, Wild: 100
[1]; Preemergence, 31 g ai/ha
  Plant response rating (scale of 0 to 100), Mustard, Wild: 5
[1]; Preemergence, 62 g ai/ha
  Plant response rating (scale of 0 to 100), Mustard, Wild: 60
[1]; [14]
  Plant response rating, Mustard, Wild: 95
[1]; [15]
  Plant response rating, Mustard, Wild: 85
[1]; [16]
  Plant response rating, Mustard, Wild: 75
[2]; [11]
  Barley, Winter plant response rating: 5
[2]; [12]
  Plant response rating, Barley, Winter: 10
[2]; [13]
  Plant response rating, Barley, Winter: 15
[2]; Preemergence, 31 g ai/ha
  Plant response rating (scale of 0 to 100), Barley, Winter: 0
[2]; [17]
  Plant response rating, Barley, Winter: 0
[2]; [14]
  Plant response rating, Barley, Winter: 10
[2]; [15]
  Plant response rating, Barley, Winter: 20
[2]; [16]
  Plant response rating, Barley, Winter: 5
[3]; [18]
  Chamomile plant response rating: 75
[3]; [12]
  Plant response rating, Chamomile: 95
[3]; [13]
  Plant response rating, Chamomile: 100
[3]; [16]
  Plant response rating, Chamomile: 85
[4]; [11]
  Blackgrass plant response rating: 20
[4]; [12]
  Plant response rating, Blackgrass: 65
[4]; [13]
  Plant response rating, Blackgrass: 75
[4]; Preemergence, 31 g ai/ha
  Plant response rating (scale of 0 to 100), Blackgrass: 15
[4]; [17]
  Plant response rating, Blackgrass: 35
[4]; [14]
  Plant response rating, Blackgrass: 50
[4]; [15]
  Plant response rating, Blackgrass: 80
[4]; [16]
  Plant response rating, Blackgrass: 45
[5]; [11]
  Windgrass plant response rating: 65
[5]; [12]
  Plant response rating, Windgrass: 75
[5]; [13]
  Plant response rating, Windgrass: 85
[5]; Preemergence, 31 g ai/ha
  Plant response rating (scale of 0 to 100), Windgrass: 25
[5]; Preemergence, 62 g ai/ha
  Plant response rating (scale of 0 to 100), Windgrass: 50
[5]; [14]
  Plant response rating, Windgrass: 75
[5]; [15]
  Plant response rating, Windgrass: 95
[5]; [16]
  Plant response rating, Windgrass: 70
[6]; [11]
  Radish, Wild plant response rating: 75
[6]; [12]
  Plant response rating, Radish, Wild: 85
[6]; [13]
  Plant response rating, Radish, Wild: 90
[6]; Preemergence, 31 g ai/ha
  Plant response rating (scale of 0 to 100), Radish, Wild: 45
[6]; Preemergence, 62 g ai/ha
  Plant response rating (scale of 0 to 100), Radish, Wild: 100
[6]; [14]
  Plant response rating, Radish, Wild: 100
[6]; [15]
  Plant response rating, Radish, Wild: 90
[6]; [16]
  Plant response rating, Radish, Wild: 75
[7]; [11]
  Lambsquarters plant response rating: 90
[7]; [12]
  Plant response rating, Lambsquarters: 100
[7]; [13]
  Plant response rating, Lambsquarters: 100
[7]; Preemergence, 31 g ai/ha
  Plant response rating (scale of 0 to 100), Lambsquarters: 100
[7]; Preemergence, 62 g ai/ha
  Plant response rating (scale of 0 to 100), Lambsquarters: 100
[7]; [14]
  Plant response rating, Lambsquarters: 100
[7]; [15]
  Plant response rating, Lambsquarters: 100
[7]; [16]
  Plant response rating, Lambsquarters: 95
[8]; [11]
  Deadnettle plant response rating: 35
[8]; [12]
  Plant response rating, Deadnettle: 75
[8]; [13]
  Plant response rating, Deadnettle: 90
[8]; Preemergence, 31 g ai/ha
  Plant response rating (scale of 0 to 100), Deadnettle: 0
[8]; Preemergence, 62 g ai/ha
  Plant response rating (scale of 0 to 100), Deadnettle: 25
[8]; [14]
  Plant response rating, Deadnettle: 95
[8]; [15]
  Plant response rating, Deadnettle: 100
[8]; [16]
  Plant response rating, Deadnettle: 50
[9]; [11]
  Field Poppy plant response rating: 20
[9]; [12]
  Plant response rating, Field Poppy: 65
[9]; [13]
  Plant response rating, Field Poppy: 75
[9]; Preemergence, 31 g ai/ha
  Plant response rating (scale of 0 to 100), Field Poppy: 10
[9]; Preemergence, 62 g ai/ha
  Plant response rating (scale of 0 to 100), Field Poppy: 10
[9]; [14]
  Plant response rating, Field Poppy: 100
[9]; [15]
  Plant response rating, Field Poppy: 100
[9]; [16]
  Plant response rating, Field Poppy: 55
[10]; [11]
  Foxtail, Green plant response rating: 65
[10]; [12]
  Plant response rating, Foxtail, Green: 75
[10]; [13]
  Plant response rating, Foxtail, Green: 95
[10]; Preemergence, 31 g ai/ha
  Plant response rating (scale of 0 to 100), Foxtail, Green: 30
[10]; Preemergence, 62 g ai/ha
  Plant response rating (scale of 0 to 100), Foxtail, Green: 90
[10]; [14]
  Plant response rating, Foxtail, Green: 100
[10]; [15]
  Plant response rating, Foxtail, Green: 100
[10]; [16]
  Plant response rating, Foxtail, Green: 70

## Cc1cc(C)c2ccccc2c1-c1c(O)c(C)nn(C)c1=O [Compound 21]
[1]; [11]
  Mustard, Wild plant response rating: 100
[1]; [12]
  Plant response rating, Mustard, Wild: 100
[1]; [13]
  Plant response rating, Mustard, Wild: 100
[1]; [16]
  Plant response rating, Mustard, Wild: 100
[2]; [11]
  Plant response rating, Barley, Winter: 0
[2]; [12]
  Plant response rating, Barley, Winter: 30
[2]; [13]
  Plant response rating, Barley, Winter: 40
[2]; [16]
  Plant response rating, Barley, Winter: 10
[3]; [18]
  Chamomile plant response rating: 90
[3]; [12]
  Plant response rating, Chamomile: 100
[3]; [13]
  Plant response rating, Chamomile: 100
[3]; [16]
  Plant response rating, Chamomile: 95
[4]; [11]
  Blackgrass plant response rating: 80
[4]; [12]
  Plant response rating, Blackgrass: 85
[4]; [13]
  Plant response rating, Blackgrass: 90
[4]; [16]
  Plant response rating, Blackgrass: 85
[5]; [11]
  Windgrass plant response rating: 70
[5]; [12]
  Plant response rating, Windgrass: 85
[5]; [13]
  Plant response rating, Windgrass: 85
[5]; [16]
  Plant response rating, Windgrass: 80
[6]; [11]
  Radish, Wild plant response rating: 95
[6]; [12]
  Plant response rating, Radish, Wild: 100
[6]; [13]
  Plant response rating, Radish, Wild: 100
[6]; [16]
  Plant response rating, Radish, Wild: 100
[7]; [11]
  Lambsquarters plant response rating: 80
[7]; [12]
  Plant response rating, Lambsquarters: 90
[7]; [13]
  Plant response rating, Lambsquarters: 95
[7]; [16]
  Plant response rating, Lambsquarters: 85
[8]; [11]
  Deadnettle plant response rating: 90
[8]; [12]
  Plant response rating, Deadnettle: 95
[8]; [13]
  Plant response rating, Deadnettle: 100
[8]; [16]
  Plant response rating, Deadnettle: 100
[9]; [11]
  Field Poppy plant response rating: 85
[9]; [12]
  Plant response rating, Field Poppy: 100
[9]; [13]
  Plant response rating, Field Poppy: 100
[9]; [16]
  Plant response rating, Field Poppy: 100
[10]; [11]
  Foxtail, Green plant response rating: 70
[10]; [12]
  Plant response rating, Foxtail, Green: 85
[10]; [13]
  Plant response rating, Foxtail, Green: 95
[10]; [16]
  Plant response rating, Foxtail, Green: 80
